ChEMBL document CHEMBL1159031, “Cytotoxic quassinoids from Cedronia granatensis” (1992)

Assays:
Assay type in all cases: functional
[1] = Cytotoxicity against human NCI-H322 cells; conditions: read-out: Log10LC50 (converted)
IGROV-1 = assay: Cytotoxicity against human IGROV1 cells; conditions: read-out: Log10LC50 (converted)
HCT-116 = assay: Cytotoxicity against human HCT116 cells; conditions: read-out: Log10LC50 (converted)
[2] = Cytotoxicity against human RXF631 cells; conditions: RXF 631, read-out: Log10LC50 (converted)
UACC-62 = assay: Cytotoxicity against human UACC62 cells; conditions: read-out: Log10LC50 (converted)
SK-MEL-2 = assay: Cytotoxicity against human SK-MEL-2 cells; conditions: read-out: Log10LC50 (converted)
MOLT-4 = assay: Cytotoxicity against human MOLT4 cells; conditions: read-out: Log10LC50 (converted)
NCI-H226 = assay: Cytotoxicity against human NCI-H226 cells; conditions: read-out: Log10LC50 (converted)
HCT-15 = assay: Cytotoxicity against human HCT15 cells; conditions: read-out: Log10LC50 (converted)
SNB-78 = assay: Cytotoxicity against human SNB78 cells; conditions: read-out: Log10LC50 (converted)
A498 = assay: Cytotoxicity against human A498 cells; conditions: read-out: Log10LC50 (converted)
NCI-H460 = assay: Cytotoxicity against human NCI-H460 cells; conditions: read-out: Log10LC50 (converted)
CAKI-1 = assay: Cytotoxicity against human Caki1 cells; conditions: read-out: Log10LC50 (converted)
A549 = assay: Cytotoxicity against human A549 cells; conditions: read-out: Log10LC50 (converted)
KM-20L2 = assay: Cytotoxicity against human KM20L2 cells; conditions: read-out: Log10LC50 (converted)
SF-295 = assay: Cytotoxicity against human SF295 cells; conditions: read-out: Log10LC50 (converted)
DMS-273 = assay: Cytotoxicity against human DMS273 cells; conditions: read-out: Log10LC50 (converted)
TK-10 = assay: Cytotoxicity against human TK10 cells; conditions: read-out: Log10LC50 (converted)
SK-MEL-5 = assay: Cytotoxicity against human SK-MEL-5 cells; conditions: read-out: Log10LC50 (converted)
SNB-75 = assay: Cytotoxicity against human SNB75 cells; conditions: read-out: Log10LC50 (converted)
SNB-19 = assay: Cytotoxicity against human SNB19 cells; conditions: read-out: Log10LC50 (converted)
EKVX = assay: Cytotoxicity against human EKVX cells; conditions: read-out: Log10LC50 (converted)
SN12C = assay: Cytotoxicity against human SN12C cells; conditions: read-out: Log10LC50 (converted)
M19-MEL = assay: Cytotoxicity against human M19-MEL cells; conditions: read-out: Log10LC50 (converted)
SF-268 = assay: Cytotoxicity against human SF268 cells; conditions: read-out: Log10LC50 (converted)
U-251 = assay: Cytotoxicity against human U251 cells; conditions: read-out: Log10LC50 (converted)
OVCAR-4 = assay: Cytotoxicity against human OVCAR4 cells; conditions: read-out: Log10LC50 (converted)
HOP-62 = assay: Cytotoxicity against human HOP62 cells; conditions: read-out: Log10LC50 (converted)
CCRF-CEM = assay: Cytotoxicity against human CCRF-CEM cells; conditions: read-out: Log10LC50 (converted)
DLD-1 = assay: Cytotoxicity against human DLD1 cells; conditions: read-out: Log10LC50 (converted)
NCI-H522 = assay: Cytotoxicity against human NCI-H522 cells; conditions: read-out: Log10LC50 (converted)
HL-60(TB) = assay: Cytotoxicity against human HL-60(TB) cells; conditions: read-out: Log10LC50 (converted)
OVCAR-8 = assay: Cytotoxicity against human OVCAR8 cells; conditions: read-out: Log10LC50 (converted)
M14 = assay: Cytotoxicity against human M14 cells; conditions: read-out: Log10LC50 (converted)
HOP-92 = assay: Cytotoxicity against human HOP92 cells; conditions: read-out: Log10LC50 (converted)
[3] = Cytotoxicity against human LXFL 529L cells; conditions: read-out: Log10LC50 (converted)
NCI-H23 = assay: Cytotoxicity against human NCI-H23 cells; conditions: read-out: Log10LC50 (converted)
HCC 2998 = assay: Cytotoxicity against human HCC2998 cells; conditions: read-out: Log10LC50 (converted)
SK-MEL-28 = assay: Cytotoxicity against human SK-MEL-28 cells; conditions: read-out: Log10LC50 (converted)
SW-620 = assay: Cytotoxicity against human SW620 cells; conditions: read-out: Log10LC50 (converted)
LOX IMVI = assay: Cytotoxicity against human LOXIMVI cells; conditions: read-out: Log10LC50 (converted)
DMS-114 = assay: Cytotoxicity against human DMS114 cells; conditions: read-out: Log10LC50 (converted)
RPMI-8226 = assay: Cytotoxicity against human RPMI8226 cells; conditions: read-out: Log10LC50 (converted)
HT-29 = assay: Cytotoxicity against human HT-29 cells; conditions: read-out: Log10LC50 (converted)
HOP-18 = assay: Cytotoxicity against human HOP18 cells; conditions: read-out: Log10LC50 (converted)
KM12 = assay: Cytotoxicity against human KM12 cells; conditions: read-out: Log10LC50 (converted)
SF-539 = assay: Cytotoxicity against human SF539 cells; conditions: read-out: Log10LC50 (converted)
OVCAR-5 = assay: Cytotoxicity against human OVCAR5 cells; conditions: read-out: Log10LC50 (converted)
ACHN = assay: Cytotoxicity against human ACHN cells; conditions: read-out: Log10LC50 (converted)
SK-OV-3 = assay: Cytotoxicity against human SKOV3 cells; conditions: read-out: Log10LC50 (converted)
SR = assay: Cytotoxicity against human SR cells; conditions: read-out: Log10LC50 (converted)
Malme-3M = assay: Cytotoxicity against human MALME-3M cells; conditions: read-out: Log10LC50 (converted)
UACC-257 = assay: Cytotoxicity against human UACC257 cells; conditions: read-out: Log10LC50 (converted)
[4] = Cytotoxicity against human 786-O cells; conditions: 786-0, read-out: Log10LC50 (converted)
RXF 393 = assay: Cytotoxicity against human RXF393 cells; conditions: read-out: Log10LC50 (converted)
UO-31 = assay: Cytotoxicity against human UO31 cells; conditions: read-out: Log10LC50 (converted)
OVCAR-3 = assay: Cytotoxicity against human OVCAR-3 cells; conditions: read-out: Log10LC50 (converted)
K562 = assay: Cytotoxicity against human K562 cells; conditions: read-out: Log10LC50 (converted)
XF498 = assay: Cytotoxicity against human XF498 cells; conditions: read-out: Log10LC50 (converted)
COLO 205 = assay: Cytotoxicity against human COLO205 cells; conditions: read-out: Log10LC50 (converted)

COC(=O)[C@@]12OC[C@]34[C@H]([C@@H](O)[C@@H]1O)[C@@]1(C)[C@H](O)C(=O)C=C(C)[C@@H]1C[C@H]3OC(=O)[C@H](OC(C)=O)[C@@H]24 [ISOBRUCEIN B]
CC50 [1]: 42.7 µM
CC50 (IGROV-1): 42.7 µM
CC50 (HCT-116): 18.2 µM
CC50 [2]: 42.7 µM
CC50 (UACC-62): 5370 nM
CC50 (SK-MEL-2): 7.08 µM
CC50 (MOLT-4): 42.7 µM
CC50 (NCI-H226): 14.1 µM
CC50 (HCT-15): 33.1 µM
CC50 (SNB-78): 42.7 µM
CC50 (A498): 5750 nM
CC50 (NCI-H460): 14.1 µM
CC50 (CAKI-1): 42.7 µM
CC50 (A549): 42.7 µM
CC50 (KM-20L2): 42.7 µM
CC50 (SF-295): 32.4 µM
CC50 (DMS-273): 2690 nM
CC50 (TK-10): 42.7 µM
CC50 (SK-MEL-5): 2090 nM
CC50 (SNB-75): 14.1 µM
CC50 (SNB-19): 42.7 µM
CC50 (EKVX): 42.7 µM
CC50 (SN12C): 42.7 µM
CC50 (M19-MEL): 4790 nM
CC50 (SF-268): 40.7 µM
CC50 (U-251): 42.7 µM
CC50 (OVCAR-4): 11 µM
CC50 (HOP-62): 42.7 µM
CC50 (CCRF-CEM): 42.7 µM
CC50 (DLD-1): 42.7 µM
CC50 (NCI-H522): 6.17 µM
CC50 (HL-60(TB)): 347 nM
CC50 (OVCAR-8): 21.9 µM
CC50 (M14): 2290 nM
CC50 (HOP-92): 42.7 µM
CC50 [3]: 42.7 µM
CC50 (NCI-H23): 3470 nM
CC50 (HCC 2998): 1580 nM
CC50 (SK-MEL-28): 3390 nM
CC50 (SW-620): 39.8 µM
CC50 (LOX IMVI): 8.51 µM
CC50 (DMS-114): 1910 nM
CC50 (RPMI-8226): 42.7 µM
CC50 (HT-29): 42.7 µM
CC50 (HOP-18): 42.7 µM
CC50 (KM12): 20.9 µM
CC50 (SF-539): 1290 nM
CC50 (OVCAR-5): 42.7 µM
CC50 (ACHN): 42.7 µM
CC50 (SK-OV-3): 42.7 µM
CC50 (SR): 42.7 µM
CC50 (Malme-3M): 3020 nM
CC50 (UACC-257): 20.9 µM
CC50 [4]: 33.1 µM
CC50 (RXF 393): 10 µM
CC50 (UO-31): 42.7 µM
CC50 (OVCAR-3): 42.7 µM
CC50 (K562): 11 µM
CC50 (XF498): 12 µM
CC50 (COLO 205): 5750 nM

COC(=O)[C@]12OC[C@]34[C@H]([C@@H](O)[C@@H]1O)[C@@]1(C)C=C5OC(=O)C=C5[C@@H](C)[C@@H]1C[C@H]3OC(=O)[C@H](OC(C)=O)[C@@H]24 [SERGEOLIDE]
CC50 [1]: 3.98 µM
CC50 (IGROV-1): 3.98 µM
CC50 (HCT-116): 0.129 µM
CC50 [2]: 3.72 µM
CC50 (UACC-62): 32.4 nM
CC50 (SK-MEL-2): 0.0269 µM
CC50 (MOLT-4): 3.89 µM
CC50 (NCI-H226): 0.0661 µM
CC50 (HCT-15): 1.91 µM
CC50 (SNB-78): 2.51 µM
CC50 (A498): 57.5 nM
CC50 (NCI-H460): 0.457 µM
CC50 (CAKI-1): 3.98 µM
CC50 (A549): 3.98 µM
CC50 (KM-20L2): 3.98 µM
CC50 (SF-295): 0.38 µM
CC50 (DMS-273): 110 nM
CC50 (TK-10): 3.98 µM
CC50 (SK-MEL-5): 6.61 nM
CC50 (SNB-75): 0.0389 µM
CC50 (SNB-19): 3.98 µM
CC50 (EKVX): 0.891 µM
CC50 (SN12C): 3.98 µM
CC50 (M19-MEL): 19.9 nM
CC50 (SF-268): 2.09 µM
CC50 (U-251): 3.98 µM
CC50 (OVCAR-4): 0.0447 µM
CC50 (HOP-62): 1.91 µM
CC50 (CCRF-CEM): 3.98 µM
CC50 (DLD-1): 3.24 µM
CC50 (NCI-H522): 0.0158 µM
CC50 (HL-60(TB)): 57.5 nM
CC50 (OVCAR-8): 0.776 µM
CC50 (M14): 20.9 nM
CC50 (HOP-92): 3.98 µM
CC50 [3]: 0.0676 µM
CC50 (NCI-H23): 70.8 nM
CC50 (HCC 2998): 28.8 nM
CC50 (SK-MEL-28): 120 nM
CC50 (SW-620): 3.98 µM
CC50 (LOX IMVI): 0.288 µM
CC50 (DMS-114): 36.3 nM
CC50 (RPMI-8226): 3.98 µM
CC50 (HT-29): 3.8 µM
CC50 (HOP-18): 3.98 µM
CC50 (KM12): 0.437 µM
CC50 (SF-539): 25.7 nM
CC50 (OVCAR-5): 3.31 µM
CC50 (ACHN): 3.39 µM
CC50 (SK-OV-3): 3.98 µM
CC50 (SR): 3.98 µM
CC50 (Malme-3M): 12 nM
CC50 (UACC-257): 0.0589 µM
CC50 [4]: 0.407 µM
CC50 (RXF 393): 0.0513 µM
CC50 (UO-31): 2.88 µM
CC50 (OVCAR-3): 3.98 µM
CC50 (K562): 3.98 µM
CC50 (XF498): 0.0589 µM
CC50 (COLO 205): 21.9 nM
